Reference: PubChem BioAssay AID220 (DTP/NCI, 2004)
Several values for one entry are separate records, joined by “and”; a condition that tells them apart may be missing. Identical values can stand only once. Records with an inconclusive call do not appear.

Test system: CD8F1 mice, subcutaneous mammary adenocarcinoma, T/C%
Assay: NCI In Vivo Anticancer Drug Screen. Data for tumor model Mammary Adenocarcinoma CD8F1 (subcutaneous) in CD8F1
Conditions: higher = larger tumour
How it was run: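 Antitumor activity is assessed in transplantable-tumor mice by comparing the treated group with a vehicle-treated control group. Survival or tumor size serves as the measure, reported as T divided by C.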

[1] = endpoint: median tumor weight change, dose: 125.0 mg/kg/injection, schedule: Q01DX001 (ip), vehicle: Klucel (hydroxypropylcellulose) (HPC)
[2] = endpoint: median tumor weight change, dose: 250.0 mg/kg/injection, schedule: Q01DX001 (ip), vehicle: Klucel (hydroxypropylcellulose) (HPC)
[3] = endpoint: median tumor weight change, dose: 500.0 mg/kg/injection, schedule: Q01DX001 (ip), vehicle: Klucel (hydroxypropylcellulose) (HPC)
[4] = endpoint: median tumor weight (est.), dose: 12.5 mg/kg/injection, schedule: Q07DX005 (ip), vehicle: saline with Tween-80
[5] = endpoint: median tumor weight (est.), dose: 25.0 mg/kg/injection, schedule: Q07DX005 (ip), vehicle: saline with Tween-80
[6] = endpoint: median tumor weight (est.), dose: 50.0 mg/kg/injection, schedule: Q07DX005 (ip), vehicle: saline with Tween-80
[7] = endpoint: median tumor weight (est.), dose: 100.0 mg/kg/injection, schedule: Q07DX005 (ip), vehicle: saline with Tween-80
[8] = endpoint: median tumor weight (est.), dose: 12.5 mg/kg/injection, schedule: Q07DX005 (ip), vehicle: suspension in saline
[9] = endpoint: median tumor weight (est.), dose: 25.0 mg/kg/injection, schedule: Q07DX005 (ip), vehicle: suspension in saline
[10] = endpoint: median tumor weight (est.), dose: 200.0 mg/kg/injection, schedule: Q07DX005 (ip), vehicle: saline with Tween-80
[11] = endpoint: median tumor weight change, dose: 125.0 mg/kg/injection, schedule: Q01DX001 (ip), vehicle: saline
[12] = endpoint: median tumor weight change, dose: 250.0 mg/kg/injection, schedule: Q01DX001 (ip), vehicle: saline

## COc1cc(C)c(C2NC(=O)c3ccccc3N2)cc1C (configuration not stated)
[1]
  T/C: 69 % of control
[2]
  T/C: 76 % of control
[3]
  T/C: 91 % of control
endpoint: median tumor weight change, dose: 1000.0 mg/kg/injection, schedule: Q01DX001 (ip), vehicle: Klucel (hydroxypropylcellulose) (HPC)
  T/C: 107 % of control
endpoint: median tumor weight change, dose: 2000.0 mg/kg/injection, schedule: Q01DX001 (ip), vehicle: Klucel (hydroxypropylcellulose) (HPC)
  T/C: 84 % of control

## Cn1c2nc(=O)n(-c3ccccc3)c(=O)c-2nc2c1CCCC2
[4]
  T/C: 90 % of control
[5]
  T/C: 108 % of control
[6]
  T/C: 119 % of control
[7]
  T/C: 100 % of control

## Nc1ccc2nc3ccc(N)cc3[n+](-c3ccccc3)c2c1
endpoint: median tumor weight (est.), dose: 6.25 mg/kg/injection, schedule: Q07DX005 (ip), vehicle: Klucel (hydroxypropylcellulose) (HPC)
  T/C: 90 % of control
endpoint: median tumor weight (est.), dose: 6.25 mg/kg/injection, schedule: Q07DX005 (ip), vehicle: suspension in saline
  T/C: 72 % of control
endpoint: median tumor weight (est.), dose: 12.5 mg/kg/injection, schedule: Q07DX005 (ip), vehicle: Klucel (hydroxypropylcellulose) (HPC)
  T/C: 35 % of control
[8]
  T/C: 64 % of control
endpoint: median tumor weight (est.), dose: 25.0 mg/kg/injection, schedule: Q07DX005 (ip), vehicle: Klucel (hydroxypropylcellulose) (HPC)
  T/C: 80 % of control
[9]
  T/C: 95 % of control
endpoint: median tumor weight (est.), dose: 50.0 mg/kg/injection, schedule: Q07DX005 (ip), vehicle: Klucel (hydroxypropylcellulose) (HPC)
  T/C: 45 % of control

## O=C1N[C@@H]2C(=C[C@H](O)[C@@H](O)[C@H]2O)c2cc3c(c(O)c21)OCO3
endpoint: median tumor weight change, dose: 3.12 mg/kg/injection, schedule: Q01DX001 (ip), vehicle: saline with Tween-80
  T/C: 75 % of control
endpoint: median tumor weight change, dose: 6.25 mg/kg/injection, schedule: Q01DX001 (ip), vehicle: saline with Tween-80
  T/C: 90 % of control
endpoint: median tumor weight change, dose: 12.5 mg/kg/injection, schedule: Q01DX001 (ip), vehicle: saline with Tween-80
  T/C: 60 % of control

## COC(=O)Nc1nc2ccc(SC)cc2c(=O)[nH]1
[1]
  T/C: 79 % of control
[2]
  T/C: 61 % of control
[3]
  T/C: 57 % of control

## CCNC(C)(C)C(SSS)c1ccco1 (configuration not stated)
endpoint: median tumor weight change, dose: 31.25 mg/kg/injection, schedule: Q01DX001 (ip), vehicle: saline with Tween-80
  T/C: 97 % of control
endpoint: median tumor weight change, dose: 62.5 mg/kg/injection, schedule: Q01DX001 (ip), vehicle: saline with Tween-80
  T/C: 87 % of control
endpoint: median tumor weight change, dose: 125.0 mg/kg/injection, schedule: Q01DX001 (ip), vehicle: saline with Tween-80
  T/C: 65 % of control
endpoint: median tumor weight change, dose: 250.0 mg/kg/injection, schedule: Q01DX001 (ip), vehicle: saline with Tween-80
  T/C: 59 % of control

## CO[C@H]1C[C@@H]2CC[C@@H](C)[C@@](O)(O2)C(=O)C(=O)N2CCCC[C@H]2C(=O)O[C@H]([C@H](C)C[C@@H]2CC[C@@H](O)[C@H](OC)C2)CC(=O)[C@H](C)C=C(C)[C@@H](O)[C@@H](OC)C(=O)[C@H](C)C[C@H](C)/C=C/C=C/C=C1C
endpoint: median tumor weight (est.), dose: 3.12 mg/kg/injection, schedule: Q07DX005 (ip), vehicle: clinical formulation
  T/C: 48 % of control
endpoint: median tumor weight (est.), dose: 3.12 mg/kg/injection, schedule: Q07DX005 (ip), vehicle: saline with Tween-80
  T/C: 54 % of control
endpoint: median tumor weight (est.), dose: 6.25 mg/kg/injection, schedule: Q07DX005 (ip), vehicle: clinical formulation
  T/C: 58 % of control
endpoint: median tumor weight (est.), dose: 6.25 mg/kg/injection, schedule: Q07DX005 (ip), vehicle: saline with Tween-80
  T/C: 49 % of control
endpoint: median tumor weight (est.), dose: 12.5 mg/kg/injection, schedule: Q07DX005 (ip), vehicle: clinical formulation
  T/C: 77 % of control
[4]
  T/C: 29 % of control and 40 % of control
endpoint: median tumor weight (est.), dose: 25.0 mg/kg/injection, schedule: Q07DX005 (ip), vehicle: clinical formulation
  T/C: 60 % of control
[5]
  T/C: 25 % of control and 31 % of control
endpoint: median tumor weight (est.), dose: 50.0 mg/kg/injection, schedule: Q07DX005 (ip), vehicle: clinical formulation
  T/C: 50 % of control
[6]
  T/C: 22 % of control and 23 % of control
endpoint: median tumor weight (est.), dose: 100.0 mg/kg/injection, schedule: Q07DX005 (ip), vehicle: clinical formulation
  T/C: 63 % of control
[7]
  T/C: 14 % of control and 20 % of control
endpoint: median tumor weight (est.), dose: 200.0 mg/kg/injection, schedule: Q07DX005 (ip), vehicle: clinical formulation
  T/C: 22 % of control
[10]
  T/C: 10 % of control and 23 % of control

## O=C/C(Cl)=C(/Cl)C(=O)O
endpoint: median tumor weight (est.), dose: 2.5 mg/kg/injection, schedule: Q07DX005 (ip), vehicle: saline with Tween-80
  T/C: 190 % of control
endpoint: median tumor weight (est.), dose: 5.0 mg/kg/injection, schedule: Q07DX005 (ip), vehicle: saline with Tween-80
  T/C: 121 % of control
endpoint: median tumor weight (est.), dose: 10.0 mg/kg/injection, schedule: Q07DX005 (ip), vehicle: saline with Tween-80
  T/C: 245 % of control

## O=C1CCC(=O)N1CO
[11]
  T/C: 97 % of control
[12]
  T/C: 89 % of control
endpoint: median tumor weight change, dose: 500.0 mg/kg/injection, schedule: Q01DX001 (ip), vehicle: saline
  T/C: 81 % of control
endpoint: median tumor weight change, dose: 1000.0 mg/kg/injection, schedule: Q01DX001 (ip), vehicle: saline
  T/C: 75 % of control

## C=CC(=O)NCNC(=O)C=C
[8]
  T/C: 104 % of control
[9]
  T/C: 85 % of control
endpoint: median tumor weight (est.), dose: 50.0 mg/kg/injection, schedule: Q07DX005 (ip), vehicle: suspension in saline
  T/C: 80 % of control
endpoint: median tumor weight (est.), dose: 100.0 mg/kg/injection, schedule: Q07DX005 (ip), vehicle: suspension in saline
  T/C: 43 % of control
endpoint: median tumor weight (est.), dose: 200.0 mg/kg/injection, schedule: Q07DX005 (ip), vehicle: suspension in saline
  T/C: 32 % of control
endpoint: median tumor weight (est.), dose: 400.0 mg/kg/injection, schedule: Q07DX005 (ip), vehicle: suspension in saline
  T/C: 9 % of control
endpoint: median tumor weight change, dose: 62.5 mg/kg/injection, schedule: Q01DX001 (ip), vehicle: saline
  T/C: 78 % of control
endpoint: median tumor weight change, dose: 62.5 mg/kg/injection, schedule: Q01DX001 (ip), vehicle: suspension in saline
  T/C: 90 % of control
endpoint: median tumor weight change, dose: 72.0 mg/kg/injection, schedule: Q01DX001 (ip), vehicle: saline
  T/C: 105 % of control
endpoint: median tumor weight change, dose: 109.0 mg/kg/injection, schedule: Q01DX001 (ip), vehicle: saline
  T/C: 150 % of control
[11]
  T/C: 46 % of control
endpoint: median tumor weight change, dose: 125.0 mg/kg/injection, schedule: Q01DX001 (ip), vehicle: suspension in saline
  T/C: 42 % of control
endpoint: median tumor weight change, dose: 165.0 mg/kg/injection, schedule: Q01DX001 (ip), vehicle: saline
  T/C: 71 % of control
[12]
  T/C: 50 % of control and 74 % of control
endpoint: median tumor weight change, dose: 250.0 mg/kg/injection, schedule: Q01DX001 (ip), vehicle: suspension in saline
  T/C: -28 % of control
endpoint: median tumor weight change, dose: 379.0 mg/kg/injection, schedule: Q01DX001 (ip), vehicle: saline
  T/C: 62 % of control

## Cc1cn(C2CC3[O][Sn]([c]4ccccc4)([c]4ccccc4)[O]CC3O2)c(=O)[nH]c1=O (configuration not stated)
[4]
  T/C: 73 % of control
endpoint: median tumor weight (est.), dose: 12.5 mg/kg/injection, schedule: Q07DX005 (ip), vehicle: saline
  T/C: 63 % of control
[5]
  T/C: 40 % of control
endpoint: median tumor weight (est.), dose: 25.0 mg/kg/injection, schedule: Q07DX005 (ip), vehicle: saline
  T/C: 16 % of control
[6]
  T/C: 67 % of control
endpoint: median tumor weight (est.), dose: 50.0 mg/kg/injection, schedule: Q07DX005 (ip), vehicle: saline
  T/C: 84 % of control
[7]
  T/C: 81 % of control
endpoint: median tumor weight (est.), dose: 100.0 mg/kg/injection, schedule: Q07DX005 (ip), vehicle: saline
  T/C: 49 % of control
[10]
  T/C: 73 % of control
endpoint: median tumor weight (est.), dose: 200.0 mg/kg/injection, schedule: Q07DX005 (ip), vehicle: saline
  T/C: 74 % of control
endpoint: median tumor weight (est.), dose: 500.0 mg/kg/injection, schedule: Q07DX005 (ip), vehicle: saline with Tween-80
  T/C: 47 % of control

## O=C(CCCCCCC(=O)ON1C(=O)CCC1=O)ON1C(=O)CCC1=O
endpoint: median tumor weight change, dose: 187.5 mg/kg/injection, schedule: Q01DX001 (ip), vehicle: saline with Tween-80
  T/C: 100 % of control
endpoint: median tumor weight change, dose: 375.0 mg/kg/injection, schedule: Q01DX001 (ip), vehicle: saline with Tween-80
  T/C: 102 % of control
endpoint: median tumor weight change, dose: 750.0 mg/kg/injection, schedule: Q01DX001 (ip), vehicle: saline with Tween-80
  T/C: 51 % of control
